Data reported in patent publication US20240254114A1, “PREPARATION OF FUSED AZOLE DERIVATIVES AS NOVEL DIACYLGLYCERIDE 0-ACYLTRANSFERASE 2 INHIBITORS” (Merck Sharp & Dohme LLC, priority 2022, published 2024).
pIC50: −log10 of the molar value.

These molecules were tested against human DGAT2 (Homo sapiens (Human), UniProt Q96PD7) (assay: DGAT2 Enzymatic Activity Assay). Settings: Human DGAT2 IC50, hDGAT2 membrane prep from Sf-9 cells; 13C18-triolein product by LC/MS/MS.
human DGAT2, sequence (Q96PD7 whole entry): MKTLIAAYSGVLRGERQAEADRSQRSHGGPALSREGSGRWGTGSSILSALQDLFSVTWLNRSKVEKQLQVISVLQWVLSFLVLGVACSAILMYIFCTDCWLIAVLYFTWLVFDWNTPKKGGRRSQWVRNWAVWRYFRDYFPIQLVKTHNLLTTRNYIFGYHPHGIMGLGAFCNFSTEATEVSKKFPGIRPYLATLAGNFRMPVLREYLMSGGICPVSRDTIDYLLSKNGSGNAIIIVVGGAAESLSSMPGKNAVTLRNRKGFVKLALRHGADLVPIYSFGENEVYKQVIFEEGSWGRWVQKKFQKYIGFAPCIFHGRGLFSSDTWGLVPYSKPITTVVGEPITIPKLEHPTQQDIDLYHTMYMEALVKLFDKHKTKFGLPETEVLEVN

Row | pIC50 | SMILES
1 | 8.11 | Cc1c(Oc2ncc(Cl)cc2OCC(F)F)cnc2nc(C(=O)NC3(C)CCS(=O)(=O)CC3)n(C)c12 [Example 84, 6-[[5-Chloro-3-(2,2-difluoroethoxy)-2-pyridyl]oxy]-1,7-dimethyl-N-(4-methyl-1,1-dioxo-thian-4-yl)imidazo[4,5-b]pyridine-2-carboxamide]
2 | 6.27 | CC(C)n1c(C(=O)NC2(C)CCS(=O)(=O)CC2)nc2nc(Oc3ncc(Cl)cc3OCC(F)F)ccc21 [Example 51, 5-((5-chloro-3-(2,2-difluoroethoxy)pyridin-2-yl)oxy)-1-isopropyl-N-(4-methyl-1,1-dioxidotetrahydro-2H-thiopyran-4-yl)-1H-imidazo[4,5-b]pyridine-2-carboxamide]
3 | 8.66 | Cc1cc2nc(C(=O)NC3(C)CCS(=O)(=O)CC3)n(C)c2nc1Oc1ncc(Cl)cc1OCC(F)F [Example 45, 5-((5-chloro-3-(2,2-difluoroethoxy)pyridin-2-yl)oxy)-3,6-dimethyl-N-(4-methyl-1,1-dioxidotetrahydro-2H-thiopyran-4-yl)-3H-imidazo[4,5-b]pyridine-2-carboxamide]
4 | 8.36 | Cc1cc(Oc2ncc(Cl)cc2OCC(F)F)nc2c1nc(C(=O)NC1(C)CCS(=O)(=O)CC1)n2C [Example 49, 5-[[5-chloro-3-(2,2-difluoroethoxy)-2-pyridyl]oxy]-3,7-dimethyl-N-(4-methyl-1,1-dioxo-thian-4-yl)imidazo[4,5-b]pyridin-4-ium-2-carboxamide]
5 | 8.64 | Cn1c(C(=O)NC2(C)CCS(=O)(=O)CC2)nc2ccc(Oc3ncc(Cl)cc3OCC(F)(F)F)c(F)c21 [Example 21, 6-((5-Chloro-3-(2,2,2-trifluoroethoxy)pyridin-2-yl)oxy)-7-fluoro-1-methyl-N-(4-methyl-1,1-dioxidotetrahydro-2H-thiopyran-4-yl)-1H-benzo[d]imidazole-2-carboxamide]
6 | 8.96 | Cn1c(C(=O)NC2(C)CCS(=O)(=O)CC2)cc2ccc(Oc3ncc(Cl)cc3OCC(F)F)nc21 [Example 99, 6-((5-Chloro-3-(2,2-difluoroethoxy)pyridin-2-yl)oxy)-1-methyl-N-(4-methyl-1,1-dioxidotetrahydro-2H-thiopyran-4-yl)-1H-pyrrolo[2,3-b]pyridine-2-carboxamide]

Row | SMILES | pIC50
7 | CCC(COc1ccc2nc(C(=O)NC3(C)CCS(=O)(=O)CC3)n(C)c2n1)OCC(F)F (centres unmarked) [Example 60, 5-[2-(2,2-Difluoroethoxy)butoxy]-3-methyl-N-(4-methyl-1,1-dioxo-thian-4-yl)imidazo[4,5-b]pyridine-2-carboxamide] | 8.52

Same assay, conditions: read-out: Human DGAT2 IC50; hDGAT2 membrane prep from Sf-9 cells; 13C18-triolein product by LC/MS/MS

Row | pIC50 | SMILES
8 | 7.96 | Cn1c(C(=O)NC2(C)CS(=O)(=O)C2)nc2cnc(Oc3ncc(Cl)cc3OCC(F)F)cc21 [Example 70, 6-[[5-chloro-3-(2,2-difluoroethoxy)-2-pyridyl]oxy]-1-methyl-N-(3-methyl-1,1-dioxo-thietan-3-yl)imidazo[4,5-c]pyridine-2-carboxamide]
9 | 7.32 | Cn1c(C(=O)NC2(C)CCS(=O)(=O)CC2)nc2cnc(Oc3ncc(F)cc3OCC(F)(F)F)c(F)c21 [Example 77, 7-fluoro-6-[[5-fluoro-3-(2,2,2-trifluoroethoxy)-2-pyridyl]oxy]-1-methyl-N-(4-methyl-1,1-dioxo-thian-4-yl)imidazo[4,5-c]pyridine-2-carboxamide]
10 | 6.57 | Cn1c(C(=O)NC2(C)CS(=O)(=O)C2)nc2cnc(Oc3ncc(F)cc3OCC(F)F)cc21 [Example 71, 6-[[3-(2,2-difluoroethoxy)-5-fluoro-2-pyridyl]oxy]-1-methyl-N-(3-methyl-1,1-dioxo-thietan-3-yl)imidazo[4,5-c]pyridine-2-carboxamide]
11 | < 6.96 | Cn1c(C(=O)NC2(C)CCS(=O)(=O)CC2)nc2ccc(Oc3ncccc3OCC(F)(F)F)nc21 [Example 34, 3-methyl-N-(4-methyl-1,1-dioxidotetrahydro-2H-thiopyran-4-yl)-5-((3-(2,2,2-trifluoroethoxy)pyridin-2-yl)oxy)-3H-imidazo[4,5-b]pyridine-2-carboxamide]
